Assay results: patent publication US20250230193A1, “CYCLIC COMPOUND HAVING SELECTIVE KRAS INHIBITORY EFFECT ON HRAS AND NRAS” (CHUGAI SEIYAKU KABUSHIKI KAISHA, priority 2022, published 2025)

Experiments:
[1] = target: GDP-bound NRAS wild-type protein (Homo sapiens, UniProt P01111); assay: Binding to NRAS by surface plasmon resonance (SPR), Single Cycle Kinetics; conditions: KD ratio, GDP-bound NRAS wild-type vs GDP-bound KRAS wild-type, SPR
[2] = target: GDP-bound HRAS wild-type protein (Homo sapiens, UniProt P01112); assay: Binding to HRAS by surface plasmon resonance (SPR), Single Cycle Kinetics; conditions: KD ratio, GDP-bound HRAS wild-type vs GDP-bound KRAS wild-type, SPR
Sequence of GDP-bound HRAS wild-type protein (P01112 whole entry): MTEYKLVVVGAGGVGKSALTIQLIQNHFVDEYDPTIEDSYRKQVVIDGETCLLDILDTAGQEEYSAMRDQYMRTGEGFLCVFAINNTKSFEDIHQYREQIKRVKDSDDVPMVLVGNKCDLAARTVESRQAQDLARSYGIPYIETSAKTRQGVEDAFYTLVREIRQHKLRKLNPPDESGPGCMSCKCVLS

Sequence of GDP-bound NRAS wild-type protein (P01111 whole entry): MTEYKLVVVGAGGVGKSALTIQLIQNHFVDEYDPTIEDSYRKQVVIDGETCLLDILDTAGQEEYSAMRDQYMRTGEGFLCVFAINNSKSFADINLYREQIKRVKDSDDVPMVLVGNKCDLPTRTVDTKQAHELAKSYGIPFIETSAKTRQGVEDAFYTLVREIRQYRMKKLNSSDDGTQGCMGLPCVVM

Compound | NRAS/KRAS (ratio of KD value with respect to NRAS to KD value with respect to KRAS) [1] | HRAS/KRAS (ratio of KD value with respect to HRAS to KD value with respect to KRAS) [2]
CC[C@H](C)[C@@H]1NC(=O)[C@H](COC)N(C)C(=O)C[C@@H](C(=O)N2CCOCC2)N(C)C(=O)[C@H](C2CCCC2)N(C)C(=O)C2(CCC2)NC(=O)[C@@H]2CCCN2C(=O)[C@H](CCc2cc(F)c(C(F)(F)F)c(F)c2)NC(=O)CN(C)C(=O)[C@H](Cc2ccc(C(F)(F)F)cc2)N2CCCCC[C@@H](C2=O)N(C)C(=O)[C@@H]2CCN2C1=O [PP0865] | B (a compound having 3 or more and less than 10 is denoted as B) | B (a compound having 3 or more and less than 10 is denoted as B)
CC[C@H](C)[C@@H]1NC(=O)[C@H](COC)N(C)C(=O)C[C@@H](C(=O)N2CCOCC2)N(C)C(=O)[C@H](C2CCCC2)N(C)C(=O)C2(CCC2)NC(=O)[C@@H]2CC(F)(F)CN2C(=O)[C@H](CCc2cc(F)c(C(F)(F)F)c(F)c2)NC(=O)CN(C)C(=O)[C@H](Cc2ccc(C(F)(F)F)cc2)N2CCCCC[C@@H](C2=O)N(C)C(=O)[C@@H]2CCN2C1=O [PP0866] | B (a compound having 3 or more and less than 10 is denoted as B) | B (a compound having 3 or more and less than 10 is denoted as B)
CCO[C@@H]1C[C@H]2C(=O)NC3(CCCC3)C(=O)N(C)[C@@H](C3CCCC3)C(=O)N(C)[C@H](C(=O)N3CCOCC3)CC(=O)N(C)[C@@H](COC)C(=O)N[C@@H]([C@@H](C)CC)C(=O)N3CC[C@H]3C(=O)N(C)[C@H]3CCCCCN(C3=O)[C@@H](Cc3ccc(C(F)(F)F)cc3)C(=O)N(C)CC(=O)N[C@@H](CCc3cc(F)c(C(F)(F)F)c(F)c3)C(=O)N2C1 [PP0867] | B (a compound having 3 or more and less than 10 is denoted as B) | B (a compound having 3 or more and less than 10 is denoted as B)
CC[C@H](C)[C@@H]1NC(=O)[C@H](CC(C)C)N(C)C(=O)C[C@@H](C(=O)N2CCOCC2)N(C)C(=O)[C@H](C2CCCC2)N(C)C(=O)C2(CCC2)NC(=O)[C@@H]2C[C@@H](O)CN2C(=O)[C@H](CCc2cc(F)c(C(F)(F)F)c(F)c2)NC(=O)CN(C)C(=O)[C@H](Cc2ccc(C(F)(F)F)cc2)N2CCCC[C@@H](C2=O)N(C)C(=O)CN(C)C1=O [PP0868] | C (A compound having a KD ratio of 0.1 or more and less than 3 is denoted as C) | B (a compound having 3 or more and less than 10 is denoted as B)
CC[C@H](C)[C@@H]1NC(=O)[C@H](CC(C)C)N(C)C(=O)C[C@@H](C(=O)N2CCOCC2)N(C)C(=O)[C@H](C2CCCC2)N(C)C(=O)C2(CCC2)NC(=O)[C@@H]2[C@@H](O)CCN2C(=O)[C@H](CCc2cc(F)c(C(F)(F)F)c(F)c2)NC(=O)CN(C)C(=O)[C@H](Cc2ccc(C(F)(F)F)cc2)N2CCCC[C@@H](C2=O)N(C)C(=O)CN(C)C1=O [PP0869] | B (a compound having 3 or more and less than 10 is denoted as B) | B (a compound having 3 or more and less than 10 is denoted as B)
CC[C@H](C)[C@@H]1NC(=O)[C@H](CC(C)C)N(C)C(=O)C[C@@H](C(=O)N2CCOCC2)N(C)C(=O)[C@H](C2CCCC2)N(C)C(=O)C2(CCC2)NC(=O)[C@@H]2[C@H](O)CCN2C(=O)[C@H](CCc2cc(F)c(C(F)(F)F)c(F)c2)NC(=O)CN(C)C(=O)[C@H](Cc2ccc(C(F)(F)F)cc2)N2CCCC[C@@H](C2=O)N(C)C(=O)CN(C)C1=O [PP0870] | B (a compound having 3 or more and less than 10 is denoted as B) | B (a compound having 3 or more and less than 10 is denoted as B)
CC[C@H](C)[C@@H]1NC(=O)[C@H](CC(C)C)N(C)C(=O)C[C@@H](C(=O)N2CCOCC2)N(C)C(=O)[C@H](C2CCCC2)N(C)C(=O)C2(CCC2)NC(=O)[C@@H]2C[C@@H](O)CN2C(=O)[C@H](CCc2cc(F)c(C(F)(F)F)c(F)c2)NC(=O)CN(C)C(=O)[C@H](Cc2ccc(C(F)(F)F)cc2)N2CCCCC[C@@H](C2=O)N(C)C(=O)CN(C)C1=O [PP0871] | B (a compound having 3 or more and less than 10 is denoted as B) | B (a compound having 3 or more and less than 10 is denoted as B)
CC[C@H](C)[C@@H]1NC(=O)[C@H](CC(C)C)N(C)C(=O)C[C@@H](C(=O)N2CCOCC2)N(C)C(=O)[C@H](C2CCCC2)N(C)C(=O)C2(CCC2)NC(=O)[C@@H]2[C@@H](O)CCN2C(=O)[C@H](CCc2cc(F)c(C(F)(F)F)c(F)c2)NC(=O)CN(C)C(=O)[C@H](Cc2ccc(C(F)(F)F)cc2)N2CCCCC[C@@H](C2=O)N(C)C(=O)CN(C)C1=O [PP0872] | A (a compound having 10 or more and less than 20 is denoted as A) | A (a compound having 10 or more and less than 20 is denoted as A)
CC[C@H](C)[C@@H]1NC(=O)[C@H](CC(C)C)N(C)C(=O)C[C@@H](C(=O)N2CCOCC2)N(C)C(=O)[C@H](C2CCCC2)N(C)C(=O)C2(CCC2)NC(=O)[C@@H]2[C@H](O)CCN2C(=O)[C@H](CCc2cc(F)c(C(F)(F)F)c(F)c2)NC(=O)CN(C)C(=O)[C@H](Cc2ccc(C(F)(F)F)cc2)N2CCCCC[C@@H](C2=O)N(C)C(=O)CN(C)C1=O [PP0873] | A (a compound having 10 or more and less than 20 is denoted as A) | B (a compound having 3 or more and less than 10 is denoted as B)
C=CC[C@H]1C(=O)N[C@@H]([C@@H](C)CC)C(=O)N(C)CC(=O)N(C)[C@H]2CCCCN(C2=O)[C@@H](Cc2ccc(C(F)(F)F)cc2)C(=O)N(C)CC(=O)N[C@@H](CCc2cc(F)c(C(F)(F)F)c(F)c2)C(=O)N2C[C@H](OCC)C[C@H]2C(=O)N[C@](C)(CC=C)C(=O)N(C)[C@@H](C2CCCC2)C(=O)N(C)[C@H](C(=O)N2CCOCC2)CC(=O)N1C [PP0874] | C (A compound having a KD ratio of 0.1 or more and less than 3 is denoted as C) | B (a compound having 3 or more and less than 10 is denoted as B)
C=CCC[C@H]1C(=O)N[C@@H]([C@@H](C)CC)C(=O)N(C)CC(=O)N(C)[C@H]2CCCCN(C2=O)[C@@H](Cc2ccc(C(F)(F)F)cc2)C(=O)N(C)CC(=O)N[C@@H](CCc2cc(F)c(C(F)(F)F)c(F)c2)C(=O)N2C[C@H](OCC)C[C@H]2C(=O)N[C@](C)(CC=C)C(=O)N(C)[C@@H](C2CCCC2)C(=O)N(C)[C@H](C(=O)N2CCOCC2)CC(=O)N1C [PP0875] | C (A compound having a KD ratio of 0.1 or more and less than 3 is denoted as C) | B (a compound having 3 or more and less than 10 is denoted as B)
C=CCCC[C@H]1C(=O)N[C@@H]([C@@H](C)CC)C(=O)N(C)CC(=O)N(C)[C@H]2CCCCN(C2=O)[C@@H](Cc2ccc(C(F)(F)F)cc2)C(=O)N(C)CC(=O)N[C@@H](CCc2cc(F)c(C(F)(F)F)c(F)c2)C(=O)N2C[C@H](OCC)C[C@H]2C(=O)N[C@](C)(CC=C)C(=O)N(C)[C@@H](C2CCCC2)C(=O)N(C)[C@H](C(=O)N2CCOCC2)CC(=O)N1C [PP0876] | C (A compound having a KD ratio of 0.1 or more and less than 3 is denoted as C) | C (A compound having a KD ratio of 0.1 or more and less than 3 is denoted as C)
C=CCCCC[C@H]1C(=O)N[C@@H]([C@@H](C)CC)C(=O)N(C)CC(=O)N(C)[C@H]2CCCCN(C2=O)[C@@H](Cc2ccc(C(F)(F)F)cc2)C(=O)N(C)CC(=O)N[C@@H](CCc2cc(F)c(C(F)(F)F)c(F)c2)C(=O)N2C[C@H](OCC)C[C@H]2C(=O)N[C@](C)(CC=C)C(=O)N(C)[C@@H](C2CCCC2)C(=O)N(C)[C@H](C(=O)N2CCOCC2)CC(=O)N1C [PP0877] | C (A compound having a KD ratio of 0.1 or more and less than 3 is denoted as C) | B (a compound having 3 or more and less than 10 is denoted as B)
C=CC[C@H]1C(=O)N[C@@H]([C@@H](C)CC)C(=O)N(C)CC(=O)N(C)[C@H]2CCCCCN(C2=O)[C@@H](Cc2ccc(C(F)(F)F)cc2)C(=O)N(C)CC(=O)N[C@@H](CCc2cc(F)c(C(F)(F)F)c(F)c2)C(=O)N2C[C@H](OCC)C[C@H]2C(=O)N[C@](C)(CC=C)C(=O)N(C)[C@@H](C2CCCC2)C(=O)N(C)[C@H](C(=O)N2CCOCC2)CC(=O)N1C [PP0878] | B (a compound having 3 or more and less than 10 is denoted as B) | B (a compound having 3 or more and less than 10 is denoted as B)
C=CCC[C@H]1C(=O)N[C@@H]([C@@H](C)CC)C(=O)N(C)CC(=O)N(C)[C@H]2CCCCCN(C2=O)[C@@H](Cc2ccc(C(F)(F)F)cc2)C(=O)N(C)CC(=O)N[C@@H](CCc2cc(F)c(C(F)(F)F)c(F)c2)C(=O)N2C[C@H](OCC)C[C@H]2C(=O)N[C@](C)(CC=C)C(=O)N(C)[C@@H](C2CCCC2)C(=O)N(C)[C@H](C(=O)N2CCOCC2)CC(=O)N1C [PP0879] | B (a compound having 3 or more and less than 10 is denoted as B) | B (a compound having 3 or more and less than 10 is denoted as B)
